Here are results for 8 compounds from US5081234A, “4'-demethylepipodophyllotoxin glycosides” (Bristol-Myers Squibb Co., priority 1990, dated 1992).

In assay [1] the test system is Murine melanoma B16-F10 cells. The assay is described as follows: In vitro cytotoxicity vs B16-F10 (72 h, neutral red staining). It counts as cell-based. The following applies: Mus musculus, neutral red at 540 nm. The procedure:
Murine melanoma B16-F10 cells were grown and maintained at 37° C. under a humidified atmosphere in a 5% CO2 incubator in Eagle's MEM medium (Nissui) containing kanamycin (60 μg/ml), and supplemented with heat inactivated fetal calf serum (10%) and non-essential amino acids (0.6%). For in vitro cytotoxicity experiments, exponentially growing B16-F10 cells were harvested, counted, and suspended in the culture medium at the concentration of 2.0×10^4 cells/ml. Twenty-four hours after planting cell suspension (180 μl ) into wells of a 96-well microtiter plate, test materials (20 μl) were added to the wells and the plates were incubated for 72 hours. The cytotoxic activity against B16-F10 cells was colorimetrically determined at 540 nm after staining viable cells with neutral red solution.

The test system of assay [2] is murine P388 lymphocytic leukemia. The assay is described as follows: In vivo antitumor activity against murine P388 lymphocytic leukemia. Further details: species or system mice (female CDF1). Conditions: median survival time treated/control; P388 i.p. day 0, i.p. once on day 1 (Q1D×1), observed 45 days; maximum T/C, at dose (mg/kg): D 30, E 120, F 60, G 120, H 30, I 10, K 10, Etoposide 120; >125% considered significant. The procedure:
Representative compounds of the present invention were evaluated against murine P388 lymphocytic leukemia. Female CDF1 mice were inoculated with 1.0×10^6 of leukemia cells intraperitoneally (day 0), and test materials were intraperitoneally administered to mice once on day 1 (Q1D×1). […] The median survival time (MST) of each group was recorded, and antitumor activity was expressed as T/C % values calculated by the following equation:
T/C%=(MST of treated.div.MST of control)×100

SMILES strings stand for the structures. ≈ marks a conversion by molar mass, not a printed value.

The IC50 is the concentration that inhibits the measured activity by half. Compound `COc1cc([C@@H]2c3cc4c(cc3[C@@H](O[C@@H]3O[C@H](CO)[C@@H](O)[C@H]3O)[C@H]3COC(=O)[C@H]23)OCO4)cc(OC)c1O` [Compound D, 4'-Demethyl-4-O-(β-D-ribofuranosyl)epipodophyllotoxin] had an IC50 in assay [1] of 18 µg/mL (≈ 33.8 µM). Also, the “Antitumor Activity vs P388, Max % T/C” value in assay [2] is given as 130%. With `COc1cc([C@@H]2c3cc4c(cc3[C@@H](O[C@@H]3OC[C@@H](OC(C)=O)[C@@H](OC(C)=O)[C@H]3OC(C)=O)[C@H]3COC(=O)[C@H]23)OCO4)cc(OC)c1O` [Compound E, 4'-Demethyl-4-O-(2,3,4-tri-O-acetyl-β-D-ribopyranosyl)epipodophyllotoxin], it took 4 µg/mL (≈ 6.07 µM) to reach half-maximal inhibition in assay [1] (IC50). Besides, the “Antitumor Activity vs P388, Max % T/C” value in assay [2] was found to be 171%.

For the compound `COc1cc([C@@H]2c3cc4c(cc3[C@@H](O[C@@H]3OC[C@@H](O)[C@@H](O)[C@H]3O)[C@H]3COC(=O)[C@H]23)OCO4)cc(OC)c1O` [Compound F, 4'-Demethyl-4-O-(β-D-ribopyranosyl)epipodophyllotoxin], the 50% inhibitory concentration (IC50) in assay [1] was 1 µg/mL (≈ 1.88 µM). The “Antitumor Activity vs P388, Max % T/C” value in assay [2] is given as 181%. On to `COc1cc([C@@H]2c3cc4c(cc3[C@@H](O[C@@H]3OC[C@H]5OC(C)O[C@H]5[C@H]3O)[C@H]3COC(=O)[C@H]23)OCO4)cc(OC)c1O` (stereo partly drawn) [Compound G, 4'-Demethyl-4-O-(3,4-O-ethylidene-β-D-ribopyranosyl)epipodophyllotoxin], for which inhibition in assay [1] was half-maximal at 2.5 µg/mL (≈ 4.48 µM) (IC50). The “Antitumor Activity vs P388, Max % T/C” value in assay [2] is recorded as 152%. The corresponding values for `COc1cc([C@@H]2c3cc4c(cc3[C@@H](O[C@@H]3OC[C@@H](O)[C@H](O)[C@H]3O)[C@H]3COC(=O)[C@H]23)OCO4)cc(OC)c1O` [Compound H, 4'-Demethyl-4-O-(β-D-xylopyranosyl)epipodophyllotoxin] are 0.53 µg/mL (≈ 0.995 µM) and 150%. Taken in the same sequence, the figures for `COc1cc([C@@H]2c3cc4c(cc3[C@@H](O[C@H]3OC[C@@H](O)[C@H](O)[C@H]3O)[C@H]3COC(=O)[C@H]23)OCO4)cc(OC)c1O` [Compound I, 4'-Demethyl-4-O-(α-D-xylopyranosyl)epipodophyllotoxin] were 2.3 µg/mL (≈ 4.32 µM) and 140%. Compound `COc1cc([C@@H]2c3cc4c(cc3[C@@H](O[C@H]3OC[C@@H](O)[C@@H](O)[C@@H]3O)[C@H]3COC(=O)[C@H]23)OCO4)cc(OC)c1O` [Compound K, 4'-Demethyl-4-O-(α-D-arabinopyranosyl)epipodophyllotoxin] came in with an IC50 in assay [1] of 28 µg/mL (≈ 52.6 µM). Also, the “Antitumor Activity vs P388, Max % T/C” value in assay [2] was determined as 125%.

`COc1cc([C@@H]2c3cc4c(cc3[C@@H](O[C@@H]3O[C@@H]5CO[C@@H](C)O[C@H]5[C@H](O)[C@H]3O)[C@H]3COC(=O)[C@H]23)OCO4)cc(OC)c1O` [Etoposide, reference compound] yielded an IC50 in assay [1] of 0.21 µg/mL (≈ 0.357 µM).
